How the values were obtained:
[1] = Ring tensiometer
[2] = xn = mol fraction of the nth substance listed; conditions: Ring tensiometer

O [water]
[1]
Conditions | surface tension liquid-gas [mN/m]
298.15 K | 71.8
308.15 K | 70.1
318.15 K | 68.4
328.15 K | 66.7
338.15 K | 65

O [water] + CCn1cc[n+](C)c1.F[B-](F)(F)F
[2], x2 = 0
Conditions | surface tension liquid-gas [mN/m]
298.15 K | 71.8
308.15 K | 70.1
318.15 K | 68.4
328.15 K | 66.7
338.15 K | 65

O [water] + CCCCn1cc[n+](C)c1.F[B-](F)(F)F
[2], x2 = 0
Conditions | surface tension liquid-gas [mN/m]
298.15 K | 71.8
308.15 K | 70.1
318.15 K | 68.4
328.15 K | 66.7
338.15 K | 65

O [water] + CCCCCCn1cc[n+](C)c1.F[B-](F)(F)F
[2], x2 = 0
Conditions | surface tension liquid-gas [mN/m]
298.15 K | 71.8
308.15 K | 70.1
318.15 K | 68.4
328.15 K | 66.7
338.15 K | 65

CCn1cc[n+](C)c1.F[B-](F)(F)F [1-ethyl-3-methylimidazolium tetrafluoroborate] + O
surface tension liquid-gas [mN/m], [2]
Conditions | x1 = 0.02 | x1 = 0.04 | x1 = 0.06 | x1 = 0.08 | x1 = 0.1 | x1 = 0.2 | x1 = 0.4 | x1 = 0.6 | x1 = 0.8 | x1 = 1
298.15 K | 60.27 | 57.47 | 56.49 | 55.52 | 54.98 | 53.92 | 53.61 | 53.23 | 52.73 | 52.05
308.15 K | 59.07 | 56.47 | 55.69 | 54.82 | 54.38 | 53.52 | 53.21 | 52.83 | 52.33 | 51.65
318.15 K | 57.87 | 55.47 | 54.89 | 54.12 | 53.78 | 53.12 | 52.81 | 52.43 | 51.93 | 51.25
328.15 K | 56.67 | 54.47 | 54.09 | 53.42 | 53.18 | 52.72 | 52.41 | 52.03 | 51.53 | 50.85
338.15 K | 55.47 | 53.47 | 53.29 | 52.72 | 52.58 | 52.32 | 52.01 | 51.63 | 51.13 | 50.45

CCn1cc[n+](C)c1.F[B-](F)(F)F [1-ethyl-3-methylimidazolium tetrafluoroborate]
[1]
Conditions | surface tension liquid-gas [mN/m]
298.15 K | 52.05
308.15 K | 51.65
318.15 K | 51.25
328.15 K | 50.85
338.15 K | 50.45
